According to publication PMC3914206:

How the values were obtained:
Type in all cases: binding
Conditions in all cases: Compound Concentration 10 µM
panel of 442 kinases [1] = target: T1, panel of 442 kinases (Homo sapiens, UniProt Q9P0L2)
T1 construct: purchased KINOMEscan
Excerpt: (§1) We assessed the selectivity of members of this scaffold using the KINOMEscan methodology across a near comprehensive panel of 442 kinases [[18,27]].

panel of 442 kinases [2] = target: T2, panel of 442 kinases (Homo sapiens, UniProt P16234)
T2 construct: purchased KINOMEscan
T2 sequence (P16234 24-1089): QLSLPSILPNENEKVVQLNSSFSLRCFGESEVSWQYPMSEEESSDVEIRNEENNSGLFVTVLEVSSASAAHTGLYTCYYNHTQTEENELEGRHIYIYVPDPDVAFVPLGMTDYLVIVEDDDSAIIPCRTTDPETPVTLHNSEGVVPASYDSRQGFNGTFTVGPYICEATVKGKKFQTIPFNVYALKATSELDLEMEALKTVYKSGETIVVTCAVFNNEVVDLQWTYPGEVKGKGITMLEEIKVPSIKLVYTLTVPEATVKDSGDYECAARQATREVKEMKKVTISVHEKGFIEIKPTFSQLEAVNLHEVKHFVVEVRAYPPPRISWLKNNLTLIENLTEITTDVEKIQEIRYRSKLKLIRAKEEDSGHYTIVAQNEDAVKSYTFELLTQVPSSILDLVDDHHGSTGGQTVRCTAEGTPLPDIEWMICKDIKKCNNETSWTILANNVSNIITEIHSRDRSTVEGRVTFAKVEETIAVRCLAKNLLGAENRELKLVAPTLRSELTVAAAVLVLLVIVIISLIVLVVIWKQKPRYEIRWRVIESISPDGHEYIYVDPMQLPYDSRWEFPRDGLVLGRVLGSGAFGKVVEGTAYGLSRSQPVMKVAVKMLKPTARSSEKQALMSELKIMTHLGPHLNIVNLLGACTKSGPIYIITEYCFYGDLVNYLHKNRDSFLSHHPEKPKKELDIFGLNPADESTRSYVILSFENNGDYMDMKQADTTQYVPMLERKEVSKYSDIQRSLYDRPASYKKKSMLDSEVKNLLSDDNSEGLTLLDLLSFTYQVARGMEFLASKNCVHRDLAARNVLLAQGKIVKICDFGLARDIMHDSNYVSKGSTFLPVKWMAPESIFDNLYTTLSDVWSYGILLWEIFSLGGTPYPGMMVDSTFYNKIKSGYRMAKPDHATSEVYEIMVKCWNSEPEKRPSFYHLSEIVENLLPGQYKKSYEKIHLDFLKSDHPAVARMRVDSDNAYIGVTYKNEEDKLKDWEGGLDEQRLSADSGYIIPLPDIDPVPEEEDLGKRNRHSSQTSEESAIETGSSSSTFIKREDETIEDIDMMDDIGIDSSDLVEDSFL
Excerpt: as §1

panel of 442 kinases [3] = target: T3, panel of 442 kinases (Homo sapiens, UniProt Q13153)
T3 construct: purchased KINOMEscan
T3 sequence (Q13153 whole entry): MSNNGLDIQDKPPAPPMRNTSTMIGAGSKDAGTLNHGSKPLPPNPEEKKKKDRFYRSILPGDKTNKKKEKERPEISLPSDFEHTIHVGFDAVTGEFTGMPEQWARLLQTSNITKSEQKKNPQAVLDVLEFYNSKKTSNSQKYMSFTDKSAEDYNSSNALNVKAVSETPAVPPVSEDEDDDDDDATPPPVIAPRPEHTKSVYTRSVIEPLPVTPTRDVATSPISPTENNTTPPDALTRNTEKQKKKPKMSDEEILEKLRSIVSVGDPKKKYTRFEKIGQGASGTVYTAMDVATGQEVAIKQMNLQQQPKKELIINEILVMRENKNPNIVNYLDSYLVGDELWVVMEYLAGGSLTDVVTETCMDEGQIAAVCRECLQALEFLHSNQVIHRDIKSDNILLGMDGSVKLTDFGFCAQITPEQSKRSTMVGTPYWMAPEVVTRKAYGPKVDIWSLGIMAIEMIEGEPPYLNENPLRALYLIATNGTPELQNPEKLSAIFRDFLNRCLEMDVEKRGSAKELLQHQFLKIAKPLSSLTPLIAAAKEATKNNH
Excerpt: as §1

T1 sequence (Q9P0L2 whole entry): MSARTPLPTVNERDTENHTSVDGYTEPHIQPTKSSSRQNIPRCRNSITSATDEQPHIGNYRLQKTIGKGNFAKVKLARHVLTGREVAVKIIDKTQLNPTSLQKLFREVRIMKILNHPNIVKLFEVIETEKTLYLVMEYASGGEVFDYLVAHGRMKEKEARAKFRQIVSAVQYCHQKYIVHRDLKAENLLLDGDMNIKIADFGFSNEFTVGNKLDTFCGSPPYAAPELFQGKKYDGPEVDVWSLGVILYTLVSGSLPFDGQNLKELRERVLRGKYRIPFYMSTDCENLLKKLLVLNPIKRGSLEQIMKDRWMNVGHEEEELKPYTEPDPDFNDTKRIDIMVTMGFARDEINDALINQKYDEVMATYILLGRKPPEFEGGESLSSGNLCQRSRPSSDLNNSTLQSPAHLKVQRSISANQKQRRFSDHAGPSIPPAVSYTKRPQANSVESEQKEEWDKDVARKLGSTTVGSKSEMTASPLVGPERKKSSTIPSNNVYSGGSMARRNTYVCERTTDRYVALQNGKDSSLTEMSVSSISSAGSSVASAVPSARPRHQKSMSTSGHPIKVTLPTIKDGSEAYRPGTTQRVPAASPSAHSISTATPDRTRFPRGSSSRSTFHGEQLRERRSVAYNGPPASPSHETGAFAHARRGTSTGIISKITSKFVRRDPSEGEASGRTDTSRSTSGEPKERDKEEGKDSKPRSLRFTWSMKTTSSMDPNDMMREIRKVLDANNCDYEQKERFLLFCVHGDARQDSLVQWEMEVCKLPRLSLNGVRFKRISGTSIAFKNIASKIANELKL

SMILES	KINOMEscan: MARK1 (panel of 442 kinases [1])	KINOMEscan: PDGFRA (panel of 442 kinases [2])	KINOMEscan: PAK1 (panel of 442 kinases [3])
CCOc1cc(C(=O)N2CCC(N3CCN(C)CC3)CC2)ccc1Nc1ncc2c(n1)N(C1CCCC1)c1ccccc1C(=O)N2C [Compound 26]	100	100	100
COc1cc(C(=O)N2CCC(N3CCN(C)CC3)CC2)ccc1Nc1ncc2c(n1)N(C1CCCC1)c1ccccc1C(=O)N2C [Compound 25, 11-cyclopentyl-2-((2-methoxy-4-(4-(4-methylpiperazin-1-yl)piperidine-1-carbonyl)phenyl)amino)-5-methyl-5H-benzo[e]pyrimido[5,4-b][1,4]diazepin-6(11H)-one]	99	100	82
COc1cc(C(=O)N2CCC(N3CCN(C)CC3)CC2)ccc1Nc1ncc2c(n1)N1CCc3cccc(c31)C(=O)N2C [Compound 24]	83	–	85
COc1cc(C(=O)N2CCC(N3CCN(C)CC3)CC2)ccc1Nc1ncc2c(n1)N(C)c1ccccc1C(=O)N2C [15 (LRRK2-IN-1)]	87	100	95
